According to PubChem BioAssay (NCI):
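Here, GI50 denotes the concentration required for 50% inhibition of growth. Definition used: TGI = concentration required for complete inhibition of growth.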

What was measured:
Assay in all cases: DTP human tumour cell line panel, 384-well format
[1] = test system: SF-295 CNS
[2] = test system: KM12 colon
[3] = test system: MDA-MB-468 breast
[4] = test system: TK-10 renal
[5] = test system: OVCAR-8 ovarian
[6] = test system: SNB-19 CNS
[7] = test system: MDA-MB-231 breast
[8] = test system: HT29 colon
[9] = test system: CCRF-CEM leukemia
[10] = test system: UACC-62 melanoma
[11] = test system: NCI-H226 lung
[12] = test system: NCI-H23 lung
[13] = test system: SW-620 colon
[14] = test system: HCT-15 colon
[15] = test system: T-47D breast
[16] = test system: SK-OV-3 ovarian
[17] = test system: NCI-H322M lung
[18] = test system: HOP-92 NSCLC
[19] = test system: SF-539 CNS
[20] = test system: EKVX NSCLC
[21] = test system: HOP-62 NSCLC
[22] = test system: SN12C renal
[23] = test system: SK-MEL-2 melanoma
[24] = test system: OVCAR-3 ovarian
[25] = test system: ACHN renal
[26] = test system: COLO 205 colon
[27] = test system: SR leukemia
[28] = test system: SF-268 CNS
[29] = test system: NCI-H460 NSCLC
[30] = test system: HS 578T breast
[31] = test system: DU-145 prostate
[32] = test system: RXF 393 renal
[33] = test system: U251 glioblastoma
[34] = test system: A549 NSCLC
[35] = test system: MDA-MB-435 melanoma
[36] = test system: SK-MEL-5 melanoma
[37] = test system: 786-0 renal
[38] = test system: NCI/ADR-RES ovarian
[39] = test system: BT-549 breast
[40] = test system: HL-60(TB) leukemia
[41] = test system: SK-MEL-28 melanoma
[42] = test system: CAKI-1 renal
[43] = test system: OVCAR-5 ovarian
[44] = test system: RPMI-8226 leukemia
[45] = test system: UACC-257 melanoma
[46] = test system: HCC-2998 colon
[47] = test system: MCF7 breast
[48] = test system: IGROV1 ovarian
[49] = test system: NCI-H522 lung
[50] = test system: OVCAR-4 ovarian
[51] = test system: M14 melanoma
[52] = test system: MALME-3M melanoma
[53] = test system: PC-3 prostate
[54] = test system: A498 renal
[55] = test system: SNB-75 CNS
[56] = test system: MOLT-4 leukemia

N[C@H]1C[C@@H]1c1ccc(-c2cccc(O)c2)cc1
GI50 [1]: 33.9 µM
TGI [1]: > 100 µM
GI50 [2]: 20.1 µM
TGI [2]: 37.8 µM
GI50 [3]: 4.18 µM
TGI [3]: 20.1 µM
GI50 [4]: 31.5 µM
TGI [4]: 93.3 µM
GI50 [5]: 31.8 µM
TGI [5]: 99.8 µM
GI50 [6]: 42.8 µM
TGI [6]: > 100 µM
GI50 [7]: 21.1 µM
TGI [7]: 50.3 µM
GI50 [8]: 24.6 µM
TGI [8]: 64.3 µM
GI50 [9]: 15 µM
TGI [9]: 28.4 µM
GI50 [10]: 18.7 µM
TGI [10]: 40.8 µM
GI50 [11]: 30.3 µM
TGI [11]: 96.1 µM
GI50 [12]: 23.3 µM
TGI [12]: 65.6 µM
GI50 [13]: 22.5 µM
TGI [13]: 43.5 µM
GI50 [14]: 26.7 µM
TGI [14]: 68 µM
GI50 [15]: 19.2 µM
TGI [15]: 38.4 µM
GI50 [16]: 20 µM
TGI [16]: 48.8 µM
GI50 [17]: 74.5 µM
TGI [17]: > 100 µM
GI50 [18]: 29.4 µM
TGI [18]: 72.9 µM
GI50 [19]: 24.6 µM
TGI [19]: 63.1 µM
GI50 [20]: 30.8 µM
TGI [20]: > 100 µM
GI50 [21]: 17 µM
TGI [21]: 45 µM
GI50 [22]: 44.7 µM
TGI [22]: > 100 µM
GI50 [23]: 32.5 µM
TGI [23]: 48.8 µM
GI50 [24]: 40.6 µM
TGI [24]: > 100 µM
GI50 [25]: 27 µM
TGI [25]: 61.7 µM
GI50 [26]: 43.9 µM
TGI [26]: > 100 µM
GI50 [27]: 18.8 µM
TGI [27]: 33.1 µM
GI50 [28]: 36.6 µM
TGI [28]: > 100 µM
GI50 [29]: 18.1 µM
TGI [29]: 34.6 µM
GI50 [30]: 16.9 µM
TGI [30]: 34.5 µM
GI50 [31]: 48.7 µM
TGI [31]: > 100 µM
GI50 [32]: 22 µM
TGI [32]: 46.3 µM
GI50 [33]: 24.1 µM
TGI [33]: 55.5 µM
GI50 [34]: 44.9 µM
TGI [34]: > 100 µM
GI50 [35]: 20.9 µM
TGI [35]: 46.4 µM
GI50 [36]: 14.1 µM
TGI [36]: 27.2 µM
GI50 [37]: 30.1 µM
TGI [37]: > 100 µM
GI50 [38]: 38.8 µM
TGI [38]: > 100 µM
GI50 [39]: 19.5 µM
TGI [39]: 48.8 µM
GI50 [40]: 14.3 µM
TGI [40]: 27.5 µM
GI50 [41]: 22.5 µM
TGI [41]: 43.9 µM
GI50 [42]: 24.6 µM
TGI [42]: 50.9 µM
GI50 [43]: 30.4 µM
TGI [43]: > 100 µM
GI50 [44]: 18.4 µM
TGI [44]: 34.9 µM
GI50 [45]: 19.2 µM
TGI [45]: 34.4 µM
GI50 [46]: 18.4 µM
TGI [46]: 38.7 µM
GI50 [47]: 36 µM
TGI [47]: > 100 µM
GI50 [48]: 44.1 µM
TGI [48]: > 100 µM
GI50 [49]: 17.9 µM
TGI [49]: 36.6 µM
GI50 [50]: 39.2 µM
TGI [50]: > 100 µM
GI50 [51]: 20.1 µM
TGI [51]: 36.5 µM
GI50 [52]: 16.8 µM
TGI [52]: 31.1 µM
GI50 [53]: 29.6 µM
TGI [53]: 95.1 µM
GI50 [54]: 20.3 µM
TGI [54]: 60.3 µM
GI50 [55]: 18.9 µM
TGI [55]: 59.4 µM
GI50 [56]: 14.7 µM
TGI [56]: 28 µM
